Patent US20050239780A1, “Tetrahydropyran derivative” (priority 2002, published 2005)
pIC50: −log10 of the molar value. Like-named read-outs stand apart in the source and are kept apart here.

What was measured:
[1] = system: VLDL secretion in vivo in rats; assay: Measurement of blood cholesterol and triglyceride in rats (VLDL secretion, Triton WR-1339); conditions: male SD rats, oral, Triton WR-1339 400 mg/kg i.v. after 1 hour, blood after 4 hours; for ED50: Rattus norvegicus
Experimental: 2. Measurement of Blood Cholesterol and Triglyceride in Rats
The influence of test compounds on VLDL secretion in vivo in rats was investigated. A 0.5% methyl cellulose suspension containing a test compound was orally administered to male SD rats. After 1 hour, a physiological saline solution of Triton WR-1339 (corresponding to 400 mg/kg) was injected through the caudal vein. After 4 hours, their blood was collected under anesthetization with diethyl ether. The total cholesterol and triglyceride in blood were measured by the use of “Cholesterol C Test Wako” and “Triglyceride G Test Wako” (both from Wako Pure Chemical Industries), respectively. The rats orally administered with the 0.5% methyl cellulose solution and then intravenously injected with physiological saline were used as a normal group, and those orally administered with the 0.5% methyl cellulose solution and then intravenously injected with physiological saline of Triton WR-1339 were used as a control group. The difference in the total cholesterol (TC) or triglyceride (TG) in the serum between the control group and the normal group was defined as the amount of secretion per hour, and the lowering effect in the amount of secretion of the test compound was represented by ED50.

[2] = system: plasma lipid in KK-Ay mice; assay: Pharmacological test in KK-Ay mice; format: in vivo, male KK-Ay mice; conditions: oral once a day for 7 days, relative to control group
Experimental: The influence of test compounds on plasma lipid in vivo was investigated with KK-Ay mice. A 0.5% methyl cellulose suspension containing a test compound was forcedly orally administered to male KK-Ay mice once a day for continuos 7 days. After the final administration, the mice were fed with nothing, and after 6 hours, their blood was collected under anesthetization with diethyl ether. Using the automatic analyzer, Hitachi's Model 7250, the total cholesterol, HDL cholesterol and triglyceride in plasma were measured. Non-HDL cholesterol was obtained by subtracting HDL cholesterol from total cholesterol. The plasma lipid lowering effect of the test compound was expressed in percentage relative to the control group.

[3] = system: plasma lipid in high-cholesterol feed-loaded rats; assay: Pharmacological test on high-cholesterol feed-loaded rats; format: in vivo; conditions: high-cholesterol feed-loaded male SD rats, oral once a day for 7 days, relative to control group; for ED50: Rattus norvegicus, 168 h, read-out: ED50 non-HDL cholesterol lowering effect
Experimental: 3. Pharmacological Test on High-Cholesterol Feed-Loaded Rats
The influence of test compounds on plasma lipid in vivo was investigated with high-cholesterol feed-loaded rats. A 0.5% methyl cellulose suspension containing a test compound was forcedly orally administered to male SD rats loaded with high-cholesterol feed (1.5% cholesterol, 10% coconut oil, 0.5% cholic acid), once a day for continuous 7 days. After the final administration, the rats were fed with nothing, and after 6 hours, their blood was collected under anesthetization with diethyl ether. Using an automatic analyzer, Hitachi's Model 7250, the total cholesterol, HDL cholesterol and triglyceride in plasma were measured. Non-HDL cholesterol was obtained by subtracting HDL cholesterol from total cholesterol. The non-HDL cholesterol lowering effect of the test compound, relative to the control group, was represented by ED50.

[4] = system: apo B-related lipoprotein secretion in Hep G2 cells; assay: Measurement of apo B-related lipoprotein secretion in liver cells (Hep G2, enzyme immunoassay); format: cell-based, human; conditions: culture supernatant
Experimental: 1. Measurement of Apo B-Related Lipoprotein Secretion in Liver Cells
Hep G2 cells were cultured in a 96-well plate using a 10% fetal bovine serum-containing Dulbecco's modified Eagle's medium (to be referred to as “10% FBS-containing DMEM” hereinafter). The medium was exchanged with a 10% FBS-containing DMEM that contained a DMSO solution of the test compound (DMSO final concentration 0.1%), and the cells were further incubated therein for 18 hours to obtain the culture supernatant. The culture supernatant obtained from a 10% FBS-containing DMEM that contained DMSO alone (final concentration 0.1%) was used as the control. The apo B-related lipoprotein produced in the culture supernatant was determined through an enzyme immunoassay in the manner mentioned below.
A solution of anti-human apolipoprotein B monoclonal antibody (4 μg/ml) was dispensed in 100 μl portions into a 96-well immunoassay plate and kept at 4° C. for 18 hours. Each well was washed three times with a phosphate buffer to which had been added 0.1% Tween 20 (to be referred to as “PBS-T” hereinafter), and 300 μl of a 4-fold diluted immune blocker “Block Ace” was added thereto and kept at 37° C. for 1 hour. The aforementioned culture supernatant was added to it, and kept at 37° C. for 3 hours. This was washed three times with PBS-T, and then 100 μl of a solution of caprine anti-human apolipoprotein B polyclonal antibody (2,000-fold dilution) was added to it and kept at 37° C. for 1 hour. This was washed three times with PBS-T, and then 100 μl of a solution of alkaline phosphatase-labeled anti-caprine IgG antibody (2,000-fold dilution) was added thereto and kept at 37° C. for 1 hour. This was washed four times with PBS-T, once with PBS and then with a carbonate buffer (pH 9.5), and 100 μl of a solution of an alkaline phosphatase substrate was added thereto and kept at room temperature for 5 minutes. A 50 μl portion of 0.2 M sodium hydroxide was added to it to stop the reaction, and the absorbance at 405 nm was measured. From the calibration curve based on a standard, human low-density lipoprotein, the absolute amount of apo B-related lipoprotein was obtained.

[5] = read-out: ED50 TC (total cholesterol secretion lowering effect)
[6] = read-out: ED50 TG (triglyceride secretion lowering effect)
[7] = Homo sapiens, HepG2, 18 hours incubation

pIC50 [4, 7]	SMILES	ED50 TC (total cholesterol secretion lowering effect) [1]	ED50 TG (triglyceride secretion lowering effect) [1]	Lowering rate TG ([2]; dose 3 mg/kg)	Lowering rate non-HDL ([2]; dose 3 mg/kg)	ED50 non-HDL cholesterol lowering effect [3]	pIC50 ([4]; 18 hours incubation)	ED50 [1, 5]	ED50 [1, 6]	ED50 [3]	Lowering rate TG ([2]; dose 10 mg/kg)	Lowering rate non-HDL ([2]; dose 10 mg/kg)
	COCCCN1CCN(C(=O)[C@H](c2ccc(Cn3c4ccccc4c4c(C)c(CCC(=O)O)c(C)nc43)cc2)C2CCOCC2)CC1 [Example 56]	0.9 mg/kg	1.3 mg/kg	41%	63%	1.1 mg/kg	8.14					
7.54	Cc1nc2c(c(C)c1CCC(=O)O)c1ccccc1n2Cc1ccc([C@@H](C(=O)N(C)C)C2CCOCC2)cc1 [Example 37, 3-(2,4-dimethyl-9-{4-[(S)-(dimethylcarbamoyl)(tetrahydro-2H-pyran-4-yl)methyl]benzyl}-9H-pyrido[2,3-b]indol-3-yl)propanoic acid]			57%	62%			0.71 mg/kg	0.71 mg/kg			
	Cc1nc2c(c(C)c1CCC(=O)O)c1ccccc1n2Cc1ccc([C@@H](C(=O)NCc2cccc(F)c2)C2CCOCC2)cc1 [Example 117]			98%	98%	0.032 mg/kg	8.66					
	CCCCCN1CCN(C(=O)[C@H](c2ccc(Cn3c4ccccc4c4c(C)c(CCC(=O)O)c(C)nc43)cc2)C2CCOCC2)CC1 [Example 50]	0.48 mg/kg	0.41 mg/kg	94%	90%	0.19 mg/kg	8.49					
	Cc1nc2c(c(C)c1CCC(=O)O)c1ccccc1n2Cc1ccc([C@@H](C(=O)N2CCN(C3CCC3)CC2)C2CCOCC2)cc1 [Example 57]	0.74 mg/kg	0.56 mg/kg	89%	86%	0.88 mg/kg	8.10					
8.32	Cc1nc2c(c(C)c1CCC(=O)O)c1ccccc1n2Cc1ccc([C@@H](C(=O)N2CCN(c3ccccn3)CC2)C2CCOCC2)cc1 [Example 17, (−)-3-(2,4-Dimethyl-9-{4-[(S)-2-oxo-2-(4-pyridin-2-ylpiperazin-1-yl)-1-(tetrahydro-2H-pyran-4-yl)ethyl]benzyl}-9H-pyrido[2,3-b]indol-3-yl)propanoic acid]			86%	85%			0.74 mg/kg	0.39 mg/kg	0.14 mg/kg		
8.52	CCCN1CCN(C(=O)[C@H](c2ccc(Cn3c4ccccc4c4c(C)c(CCC(=O)O)c(C)nc43)cc2)C2CCOCC2)CC1 [Example 18, (+)-3-(2,4-Dimethyl-9-{4-[(S)-2-oxo-2-(4-propylpiperazin-1-yl)-1-(tetrahydro-2H-pyran-4-yl)ethyl]benzyl}-9H-pyrido[2,3-b]indol-3-yl)propanoic acid]			87%	85%			0.5 mg/kg	0.52 mg/kg	0.2 mg/kg		
	Cc1nc2c(c(C)c1CCC(=O)O)c1ccccc1n2Cc1ccc([C@@H](C(=O)N2CCC(c3ccccc3)CC2)C2CCOCC2)cc1 [Example 45]			92%	86%	0.41 mg/kg	7.55					
	Cc1cc(C)c2c3ccccc3n(Cc3ccc([C@@H](C(=O)N[C@@H](CO)c4ccccc4)C4CCCC4)cc3)c2n1 [Implitapide, reference compound]	1.0 mg/kg	1.1 mg/kg			1.0 mg/kg					15%	14%
8.77	Cc1nc2c(c(C)c1CCC(=O)O)c1ccccc1n2Cc1ccc([C@@H](C(=O)NCc2ccccc2)C2CCOCC2)cc1 [Example 19, (−)-3-(9-{4-[(S)-(benzylcarbamoyl)(tetrahydro-2H-pyran-4-yl)methyl]benzyl}-2,4-dimethyl-9H-pyrido[2,3-b]indol-3-yl)propanoic acid]			91%	95%			0.17 mg/kg	0.24 mg/kg	0.059 mg/kg		
	Cc1nc2c(c(C)c1CCC(=O)O)c1ccc(F)cc1n2Cc1ccc([C@@H](C(=O)NCc2ccccc2)C2CCOCC2)cc1 [Example 24]	0.21 mg/kg	0.22 mg/kg	95%	96%	0.040 mg/kg						
	Cc1nc2c(c(C)c1CCC(=O)O)c1ccccc1n2Cc1ccc([C@@H](C(=O)N2CC=CCC2)C2CCOCC2)cc1 [Example 40]	0.47 mg/kg	0.28 mg/kg	81%	74%	<0.1 mg/kg	7.92					
	Cc1nc2c(c(C)c1CCC(=O)O)c1cc(F)ccc1n2Cc1ccc([C@@H](C(=O)NCc2ccccc2)C2CCOCC2)cc1 [Example 23]	0.27 mg/kg	0.19 mg/kg	96%	91%	0.063 mg/kg						
